Assay results: patent US20060078890A1, “Methods for identifying parkinson's disease therapeutics” (priority 2004, published 2006)
“Also recorded” adds a separate entry of the source. Ends that are not written are not given here.

Legend:
[1] = test system: dopaminergic neurons in the substantia nigra; test: Progressive 6-OHDA lesioned rats, TH immunohistochemistry of striatum and substantia nigra; type: in vivo, rat; details: unilateral intrastriatal 6-OHDA, total dose 22.5 μg; up to 28 days
Description: Female Sprague Dawley rats (200-250 g, Charles River, Wilmington, Mass.) receive unilateral intrastriatal stereotaxic injections of 6-OHDA (Sigma, St. Louis, USA) using a 10 μl Hamilton syringe. Intramuscular injections of Acepromazine (3.3 mg/kg, PromAce, Fort Dodge, Iowa) and atropine sulfate (0.2 mg/kg, Phoenix Pharmaceuticals, St. Joseph, Mo.) is given 10 minutes before animals will be anesthetized with ketamine/xylazine (60 mg/kg and 3 mg/kg respectively, i.m.). A concentration of 3.0 μg/μl free base 6-OHDA dissolved in 0.2% ascorbic acid/saline (Sigma) is injected into 3 locations (2.5 μl/site, total dose 22.5 μg) in the right striatum at the following coordinates (calculated from bregma): site 1, AP+1.3, L−2.8, DV−4.5, IB−2.3; site 2, AP+0.2, L−3.0, DV−5.0, IB−2.3; site 3, AP−0.6, L−4.0, DV−5.5, IB−2.3 mm.

PC12-αSyn cells = test: MPP+ toxicity in α-synuclein overexpressing PC12 cells, cell death by LDH release; type: cell-based; details: for LDH release (cell death) induced by MPP+ toxicity; neuroprotective effect: PC12-αSyn cells pretreated for two hours prior to 1 mM MPP+ for 24 hours, increasing concentrations
Description: A PC12 cell line was transfected to express wild type human α-synuclein using the Tet-Off system (Clontech Laboratories, Palo Alto, Calif.). α-Synuclein expression was suppressed using 1 μg/mL doxycycline (Clontech) in culture media before expression is required. α-Synuclein expressing PC12 cells (PC12-αSyn) were grown in Dulbecco's modified Eagle's medium (DMEM) (Invitrogen, Calsbad, Calif.) supplemented with 10% heat-inactivated horse serum, 5% heat-inactivated fetal calf serum (Hyclone, Logan, Utah), 4 mM L-glutamine, streptomycin, and penicillin G (Fisher, Pittsburgh, Pa.). Cells were maintained at 37° C., in 5% CO2 humid atmosphere.
The effects of various neuroprotective agents were examined in the PC12-αSyn cell line. To determine MPP^+ neurotoxicity in α-synuclein- and naïve PC12 cells, cell death was measured by LDH release assays.
(§1) Cell death will be assessed by quantifying intra- and extracellular lactate dehydrogenase (LDH). The ratio between the amount of LDH released and the amount remaining in the cells produces a measure of cell death. [formula]
(§2) A sample of the medium will be the extracellular LDH sample. Cells were washed with PBS and extracted in cell lysis buffer (50 mM Tris pH 8.0, 150 mM NaCl, 5 mM EDTA, 1% Triton X-100, 10 μg/ml Aprotinin, 25 μg /ml Leupeptin, 10 μg/ml Pepstatin, 1 mM PMSF; all protease inhibitors purchased from Sigma Chemicals, St. Louis, Mo.). The cell homogenate were centrifuged at 4° C. for 3 minutes at 14,000 rpm. The supernatant were taken for intracellular LDH sample. LDH activity will be quantified using an LDH assay kit (Roche, Indianapolis, Ind.).

DAN cells = test: MPP+ toxicity in human dopaminergic neuron precursor (DAN) cells, LDH release; type: cell-based; details: for LDH release (cell death) in MPP+ treated DAN cells: pretreated for two hours prior to MPP+ (1 mM)
Description: DAN cells, which have been used to study neurodegeneration, can be used in the methods of this invention; they express multiple genes of Tables 4 and/or 5, and the expression of these genes following contact with a candidate compound can be measured. […] DAN cells are sensitive to the neurotoxin MPP^+.
as §1, §2

[2] = test system: TH-positive/GIRK2-positive dopaminergic neurons of primary VM culture; test: MPP+ toxicity in primary ventral mesencephalic (VM) culture, stereological count of TH-positive/GIRK2-positive neurons; type: cell-based, rat; details: for protective effect against MPP+ toxicity on GIRK2-positive/TH-positive neurons: pretreated 2 hours prior to 10 μM MPP+
Description: VMDA cultures were obtained from E15 Sprague-Dawley rat (Charles River, Mass.) ventral mesencephalon (VM). Tissue was mechanically dissociated with a pasteur pipette. The cells were resuspended in DMEM containing heat-inhibited horse serum (10%), glucose (6.0 mg/ml), penicillin, streptomycin, and 2 mM glutamine (Gibco). Cell suspensions containing 4×10^5 cells were plated on a coverslip in a 24-well plate, precoated with a 1:500 diluted solution of polyornithine and fibronectin in 50 mM sodium borate (pH 7.4) overnight.
These cultures contained a mixed cell population having approximately 40% of TH-positive neurons at 5 days in vitro (DIV) with both A9- and A10-like dopaminergic neurons (FIG. 4A). […] The cultures were treated with MPP^+ at day 5 for 48 hours using concentrations ranging from 0.1 to 10 μM. Cells were fixed with paraformaldehyde for immunostaining of TH and GIRK2 48 hours after MPP^+ treatment.
The cultures were pretreated with the polypeptide factors 2 hours prior to 10 μM MPP^+ treatment.
Routine indirect immunofluorescence was performed on 4% paraformaldehyde fixed VM culture. The fixed cells were incubated in a blocking solution consisting of 10% normal donkey serum (Jackson Immuno Research Laboratories Inc, West Grove, Pa.) and 0.1% Triton X-100 (Sigma, St. Louis, Mo.) in 0.1M phosphate buffered saline (PBS) for 1 hour at room temperature before transferring to the primary antibody solution. The primary antibodies were diluted in blocking solution and the cells were incubated overnight at 4° C. The primary antibodies used were raised against tyrosine hydroxylase (sheep anti-TH, 1:300, Pel-Freez Biologicals, Rogers, Ak.) and GIRK2 (rabbit; 1:80, Alomone Laboratories, Jerusalem, Israel). The cells were rinsed three times in 0.1 M PBS for five minutes each before the application of the secondary antibody solution for one hour at room temperature. The secondary antibodies were diluted in 10% normal donkey serum in 0.1M PBS. The secondary antibodies were conjugated to spectrally distinct fluorescent dyes to facilitate color separation (Alexa Fluor 488 conjugated donkey anti-sheep and Alexa Fluor 594 conjugated donkey anti-rabbit, Molecular Probes, Eugene, Oreg.). After rinsing in triplicate for ten minutes each in 0.1 M PBS, the cells were counterstained with 0.0005% Hoechst 33342 (Molecular Probes) in 0.1M Tris buffered saline. The coverslips containing the fixed cells were then rinsed in 0.1M PBS followed by distilled water and mounted onto slides using an aqueous mountant (Gel/Mount, Biømeda Corp., Calif.). Control coverslips immunostained without primary antibody were used to assess specificity of the technique.
Design based stereology was performed by counters blinded to experimental groups on the stained coverslips using an integrated Axioskop 2 microscope (Carl Zeiss, Thornwood, N.Y.) and Stereoinvestigator image capture equipment and software (MicroBrightField, Williston, Vt.). A contour was drawn around each coverslip to identify the area of interest. A physical disector probe was utilized and counting frames were placed in a systematically random manner at approximately 125 sites per coverslip. The resultant coefficient of error for the stereological counts was used to assess precision (p<0.05).

Compound: NCCc1cc(O)c(O)cc1O [6-OHDA, 6-hydroxydopamine]
- loss of dopaminergic fibers in the striatum and neuronal cell bodies in the substantia nigra [1]: progressive degeneration of dopaminergic neuronal cell bodies

Compound: COC(=O)C[C@H](NC(=O)OC(C)(C)C)C(=O)CF [BAF, reference compound]
- MPP+ susceptibility (LDH release) after pretreatment with neuroprotective agent (PC12-αSyn cells; PC12-αSyn cells pretreated): significantly decreased

Compound: C[n+]1ccc(-c2ccccc2)cc1 [MPP^+, 1-methyl-4-phenylpyridinium, reference compound]
- dose of MPP+ giving maximal toxic insult (LDH release) (DAN cells; DAN cells): 2.5 mM
- LDH release in PC12-αSyn cells compared with naive PC12 cells (PC12-αSyn cells; intermediate concentration (2.5 mM) of MPP+): significantly higher LDH release
- vulnerability of TH-positive/GIRK2-positive versus TH-positive/GIRK2-negative cells ([2]; primary VM culture, MPP+ 0.1 to 10 μM at day 5 for 48 hours): more vulnerable

Compound: Fibroblast growth factor 1 [FGF1]
- LDH release (cell death) induced by MPP+ toxicity; protection by FGF1 (PC12-αSyn cells; PC12-αSyn cells, FIG. 2D): significantly reduced; also recorded: able to protect PC12-αSyn cells from MPP^+ in a dose-dependent manner

Compound: NT-3: neurotrophic factor known to have elevated expression in A10 dopaminergic neurons
- LDH release (cell death) in MPP+ treated DAN cells (DAN cells): significant dose-dependent reduction in LDH release
- LDH release (cell death) in MPP+ treated DAN cells (DAN cells; listed as NT3): protective effect
- LDH release (cell death) induced by MPP+ toxicity; neuroprotective effect (PC12-αSyn cells): Significant dose-dependent reductions in LDH release; also recorded: able to protect PC12-α-Syn cells from MPP^+ neurotoxicity in a dose-dependent manner
- protective effect against MPP+ toxicity on GIRK2-positive/TH-positive neurons ([2]; primary VM culture): significant protective effect
- survival of TH and TH/GIRK2 double-labeled neurons against MPP+ toxicity ([2]; primary VMDA culture, NT3 at 17 ng/ml, MPP+ 10 μM): protects the cells against MPP^+ toxicity

Compound: Vasoactive intestinal peptide (HSDAVFTDNYTRLRKQMAVKKYLNSILN; ends and bridges not checked; UniProt P01282 125-152, looked up) [VIP, neuropeptide elevated in A10 dopaminergic neurons]
- LDH release (cell death) induced by MPP+ toxicity; neuroprotective effect (PC12-αSyn cells): Significant dose-dependent reductions in LDH release; also recorded: dose-dependent neuroprotective effects
- neuroprotective effect in primary VM culture (TH and GIRK2 immunostaining) ([2]; 48 hours after 10 μM MPP+, 10^−6 M VIP): neuroprotective effect
- protective effect against MPP+ toxicity on GIRK2-positive/TH-positive neurons ([2]; primary VM culture): significant protective effect

Compound: calcitonin/calcitonin gene-related peptide alpha [CGRP]
- LDH release (cell death) induced by MPP+ toxicity; neuroprotective effect (PC12-αSyn cells): Significant dose-dependent reductions in LDH release; also recorded: dose-dependent neuroprotective effects

Compound: cholecysokinin-8 (DYMGWMDF; ends and bridges not checked; UniProt P06307 96-103, looked up) [CCK-8, neuropeptide elevated in A10 dopaminergic neurons]
- LDH release (cell death) induced by MPP+ toxicity; neuroprotective effect (PC12-αSyn cells): Significant dose-dependent reductions in LDH release; also recorded: dose-dependent neuroprotective effects

Compound: gastrin releasing peptide (VPLPAGGGTVLTKMYPRGNHWAVGHLM; ends and bridges not checked; UniProt P07492 24-50, looked up) [GRP, neuropeptide elevated in A10 dopaminergic neurons]
- LDH release (cell death) induced by MPP+ toxicity; neuroprotective effect (PC12-αSyn cells): Significant dose-dependent reductions in LDH release; also recorded: dose-dependent neuroprotective effects
- protective effect against MPP+ toxicity on GIRK2-positive/TH-positive neurons ([2]; primary VM culture): significant protective effect
